Experimental data as given in US8247170B2, “Detection of penicillin tolerance in Group B Streptococcus: single nucleotide polymorphisms in penicillin binding protein 4” (priority 2008, dated 2012).

System: GBS laboratory strains
Assay: Penicillin induced lysis (OD600 change)
Format: cell-based, Group B Streptococcus
Conditions: 100×MIC90 Penicillin G 22 hours
Description: In this series of study, the three GBS laboratory strains (i.e., A909, NEM316, and O90R) were cultured for 18 hours at 37° C. in THB. Subcultures in THB were subsequently grown to exponential phase (OD600˜0.3) at 37° C. Cells were treated with 100×MIC90 Penicillin G for an additional 22 hours. OD600 of these cell cultures before (O.D. initial) and after penicillin treatment (O.D. experimental) was measured (N=3). The values of O.D. experimental were subtracted from O.D. initial. (See FIG. 2).
(I) Bacterial Strains and Culture Conditions. GBS strains A909 (serotype IA), 515 (serotype IA), NEM316 (serotype III), COHI (serotype III), 2603V/R (serotype V) and O90R (non-typable) were used in this study. E. coli Top10 cells were used for the recombination experiments. GBS was cultured in Todd Hewitt broth (THB) or Tryptic Soy 5% sheep blood (TS) media and E. coli in Luria-broth (LB) medium or agar. Antibiotics were used at the following concentrations: for GBS—penicillin G (MIC90 0.06 μg ml^−1), ampicillin (MIC90 0.12 μg ml^−1), vancomycin (MIC90 2 μg ml^−1), cefazolin (MIC90 1 μg ml^−1) and chloramphenicol (5 μg ml^−1); for E. coli—ampicillin (50 μg ml^−1) and chloramphenicol (5 μg ml^−1). Both GBS and E. coli cultures were grown at 37° C. (II) Tolerance Using the MBC:MIC Ratio Method. Three GBS laboratory strains (i.e., A909, NEM316, and O90R) were cultured overnight for 18 h at 37° C. in THB. Subcultures in THB were subsequently grown to exponential phase (OD600˜0.3; i.e. 5×10^5 cfu/ml) at 37° C. Cell cultures were then exposed to different concentrations of antibiotics (Penicillin G, Ampicillin, Cefozolin or Vancomycin). […] Cell cultures were allowed to re-grow for an additional 24 h at 37° C. before the OD600 was measured. […] The initial (in.) cellular ATP concentration ([ATP]) was measured using the ENLITEN (Promega) luciferase based reaction kit. […] The experimental (exp.) cellular ATP was extracted and the concentration was measured as stated above. […]

Q: Which results are given for `CC1(C)S[C@@H]2[C@H](NC(=O)Cc3ccccc3)C(=O)N2[C@H]1C(=O)O` [Penicillin G]?
A: change in OD600 (lysis, FIG. 2) (GBS strain A909): decrease in OD; change in OD600 (lysis, FIG. 2) (GBS strain NEM316): did not; change in OD600 (lysis, FIG. 2) (GBS strain O90R): did not
